Laboratory results published in ChEMBL document CHEMBL1148027, “Novel glucocorticoids containing a 6,5-bicyclic core fused to a pyrazole ring: synthesis, in vitro profile, molecular modeling studies, and in vivo experiments” (Bioorg Med Chem Lett, 2007).
Active and inactive are the calls of the source. No cut-off for these calls is given here.

Assays:
[1] = target: T1, Glucocorticoid receptor (Homo sapiens) (UniProt P04150); assay: (§1) Activity at human glucocorticoid receptor in human A549 cells assessed as repression of human IL6; assay type: cell-based
T1 sequence (whole entry): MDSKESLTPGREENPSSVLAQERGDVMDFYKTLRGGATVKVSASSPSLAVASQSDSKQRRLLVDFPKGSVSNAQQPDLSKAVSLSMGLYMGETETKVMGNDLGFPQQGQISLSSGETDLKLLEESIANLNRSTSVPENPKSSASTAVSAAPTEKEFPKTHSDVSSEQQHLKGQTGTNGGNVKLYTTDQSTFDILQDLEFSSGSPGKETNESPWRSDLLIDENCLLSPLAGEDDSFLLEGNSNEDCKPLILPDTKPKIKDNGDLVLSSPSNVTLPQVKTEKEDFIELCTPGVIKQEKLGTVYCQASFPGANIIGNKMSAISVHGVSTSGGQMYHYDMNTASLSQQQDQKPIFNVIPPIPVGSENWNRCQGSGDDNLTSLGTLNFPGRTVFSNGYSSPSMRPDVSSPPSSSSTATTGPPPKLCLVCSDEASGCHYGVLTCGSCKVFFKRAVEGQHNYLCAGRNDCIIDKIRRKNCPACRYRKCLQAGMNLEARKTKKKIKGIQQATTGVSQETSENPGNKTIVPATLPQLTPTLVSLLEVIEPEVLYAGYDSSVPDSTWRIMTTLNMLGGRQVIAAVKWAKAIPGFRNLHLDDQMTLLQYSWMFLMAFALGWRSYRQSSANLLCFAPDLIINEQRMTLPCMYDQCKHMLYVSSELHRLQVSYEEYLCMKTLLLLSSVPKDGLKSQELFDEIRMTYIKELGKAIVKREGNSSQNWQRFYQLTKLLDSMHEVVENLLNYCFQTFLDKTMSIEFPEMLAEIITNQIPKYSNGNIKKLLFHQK

[2] = Displacement of [3H]dexamethasone from human glucocorticoid receptor alpha
[3] = target: T1, Glucocorticoid receptor (Homo sapiens); assay: Activity at human glucocorticoid receptor in human HepG2 cells assessed as tyrosine amino transferase activity; assay type: cell-based
[4] = target: Glucocorticoid receptor (Mus musculus) (UniProt P06537); assay: Activity at mouse glucocorticoid receptor in C2C12 cells assessed as mouse glutamine synthetase activity
[5] = target: T2, Glucocorticoid receptor (Homo sapiens, UniProt P04150); assay: as §1; assay type: cell-based
T2 sequence (P04150 whole entry): T1 sequence (whole entry)

[6] = tested on: Mus musculus; assay: Antiinflammatory activity in mouse assessed as inhibition of LPS-induced TNFalpha at 30 mg/kg relative to prednisolone; assay type: functional
[7] = tested on: Mus musculus; assay: Antiinflammatory activity in mouse assessed as inhibition of LPS-induced TNFalpha at 3 mg/kg; assay type: functional; parameters: scale not given: the % may be the effect or the level left
[8] = species: Mus musculus; assay: animal or person; settings: read-out: Inhibition
[9] = tested on: Mus musculus; assay: Half life in iv dosed mouse; assay type: functional, organism-based
[10] = tested on: Mus musculus; assay: Normalized AUC in iv dosed mouse; assay type: functional, organism-based
[11] = tested on: Mus musculus; assay: Oral bioavailability in mouse; assay type: functional, organism-based
[12] = tested on: Mus musculus; assay: Clearance in iv dosed mouse; assay type: functional, organism-based

Chain of Glucocorticoid receptor (Mus musculus) (P06537 whole entry, looked up): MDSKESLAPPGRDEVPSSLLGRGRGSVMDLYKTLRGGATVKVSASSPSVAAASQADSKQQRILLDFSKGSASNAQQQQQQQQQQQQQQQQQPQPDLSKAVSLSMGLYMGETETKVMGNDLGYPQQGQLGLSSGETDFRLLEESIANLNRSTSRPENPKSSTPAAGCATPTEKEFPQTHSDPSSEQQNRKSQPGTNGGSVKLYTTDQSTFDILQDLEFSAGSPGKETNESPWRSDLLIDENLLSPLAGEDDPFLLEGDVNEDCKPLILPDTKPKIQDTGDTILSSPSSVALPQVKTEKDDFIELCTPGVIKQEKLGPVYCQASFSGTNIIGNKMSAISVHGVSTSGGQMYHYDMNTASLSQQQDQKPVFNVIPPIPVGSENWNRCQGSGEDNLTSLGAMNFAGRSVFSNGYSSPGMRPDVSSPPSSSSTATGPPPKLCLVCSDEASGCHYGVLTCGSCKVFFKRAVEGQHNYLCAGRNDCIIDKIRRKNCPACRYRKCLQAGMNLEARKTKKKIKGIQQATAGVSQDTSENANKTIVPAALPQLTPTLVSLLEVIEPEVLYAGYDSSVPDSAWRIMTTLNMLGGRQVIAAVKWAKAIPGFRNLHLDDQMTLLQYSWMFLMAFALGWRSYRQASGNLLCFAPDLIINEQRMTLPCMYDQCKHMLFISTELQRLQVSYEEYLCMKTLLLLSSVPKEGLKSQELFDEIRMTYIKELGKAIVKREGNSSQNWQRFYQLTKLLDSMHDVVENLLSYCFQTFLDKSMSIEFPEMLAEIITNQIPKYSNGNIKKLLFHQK

Which results are given for C[C@]12Cc3cnn(-c4ccc(F)cc4)c3C=C1CC[C@@H]2[C@H](O)c1cc2ccccc2s1?
Activity [1]: inactive; IC50 [2]: 689 nM; Activity [3]: inactive

For C[C@]12Cc3cnn(-c4ccc(F)cc4)c3C=C1CCC[C@@H]2[C@@H](O)c1cc2ccccc2s1, which EC50 [4] is on record?
The EC50 was 1210 nM.

For C[C@]12Cc3cnn(-c4ccc(F)cc4)c3C=C1CCC[C@@H]2[C@@H](O)c1ccsc1, which EC50 [5] is on record?
Its EC50 is 1 nM.

And the IC50 [2]?
Its IC50 is 5.1 nM.

With C[C@]12Cc3cnn(-c4ccc(F)cc4)c3C=C1CCC[C@@H]2[C@H](O)c1csc2ccccc12 as the molecule, how does the IC50 [2] read?
Its IC50 is 1.5 nM.

What about the EC50 [4] of the same molecule?
Its EC50 is 3 nM.

For C[C@]12Cc3cnn(-c4ccc(F)cc4)c3C=C1CC[C@@H]2[C@@H](O)c1csc2ccccc12, which inhibition in vivo at 30 mg/kg [6] is on record?
The inhibition in vivo at 30 mg/kg was 113%.

What does the source list for C[C@]12Cc3cnn(-c4ccc(F)cc4)c3C=C1CC[C@@H]2[C@@H](O)c1ccc2ccccc2c1?
IC50 [2]: 86 nM; Activity [4]: inactive; Activity [3]: inactive

What does the source list for C[C@]12Cc3cnn(-c4ccc(F)cc4)c3C=C1CC[C@@H]2[C@H](O)c1ccc2ccccc2c1?
IC50 [2]: 198 nM; Activity [4]: inactive; Activity [3]: inactive

With C[C@]12Cc3cnn(-c4ccc(F)cc4)c3C=C1CCC[C@@H]2[C@@H](O)c1csc2ccccc12 as the molecule, how does the IC50 [2] read?
Its IC50 is 5.1 nM.

Which IC50 [2] does the source give for C[C@]12Cc3cnn(-c4ccc(F)cc4)c3C=C1CC[C@@H]2[C@@H](O)c1cc2ccccc2s1 here?
The IC50 was 69.1 nM.

What about the Activity [4] of the same molecule?
The Activity was “inactive”.

And the Activity [3]?
The Activity was “inactive”.

What does the source list for C[C@]12C=CC(=O)C=C1CC[C@@H]1[C@@H]2[C@@H](O)C[C@@]2(C)[C@H]1CC[C@]2(O)C(=O)CO [PREDNISOLONE]?
Activity [7]: 71%; inhibition in vivo at 3 mg/kg [8]: 100%

Which T1/2 [9] does the source give for C[C@]12Cc3cnn(-c4ccc(F)cc4)c3C=C1CC[C@@H]2[C@H](O)c1csc2ccccc12 here?
Its T1/2 is 7.8 h.

And the AUC [10]?
Its AUC is 1.7 µM·h/mg/kg.

And the inhibition in vivo at 30 mg/kg [6]?
Its inhibition in vivo at 30 mg/kg is 103%.

And the bioavailability [11]?
Its bioavailability is 34%.

And the CL (mL.min-1.kg-1) [12]?
The CL (mL.min-1.kg-1) was 22.3.
